Reference: patent US6489098B1, “Means and methods for monitoring nucleoside reverse transcriptase inhibitor antiretroviral therapy and guiding therapeutic decisions in the treatment of HIV/AIDS” (ViroLogic, Inc., priority 1998, dated 2002)
Several values for one entry are separate records, joined by “and”; a condition that tells them apart may be missing. Equal values may be shown once. Entries after “also recorded” stand apart in the source; their conditions may differ.

Key:
[1] = tested on: HIV with M41L, L210W, T215Y plus M184V; conditions: cited from earlier work
[2] = tested on: HIV-1 RT mutant resistance test vector M41L-T69SSA-T215Y-L210W-RTV; assay: Phenotypic susceptibility assay, site directed RTV M41L+T69SSA+L210W+T215Y; type: cell-based; conditions: L210W introduced with M41L+T69SSA+T215Y
Procedure: (§1) Resistance tests were carried out with resistance test vectors using two host cell types. Resistance test vector viral particles were produced by a first host cell (the resistance test vector host cell) that was prepared by transfecting a packaging host cell with the resistance test vector and the packaging expression vector. The resistance test vector viral particles were then used to infect a second host cell (the target host cell) in which the expression of the indicator gene is measured.
(§2) The resistance test vectors containing a functional luciferase gene cassette were constructed and host cells were transfected with the resistance test vector DNA. The resistant test vectors contained patient-derived reverse transcriptase and protease sequences that were either susceptible or resistant to the antiretroviral agents, such as nucleoside reverse transcriptase inhibitors, non-nucleoside reverse transcriptase inhibitors and protease inhibitors. The resistance test vector viral particles produced by transfecting the resistance test vector DNA into host cells, either in the presence or absence of protease inhibitors, were used to infect target host cells grown either in the absence of NRTI or NNRTI or In the presence of increasing concentrations of the drug. The amount of luciferase activIty produced in infected target host cells in the presence of drug was compared to the amount of luciferase produced in infected target host cells in the absence of drug. […] The IC50 values were determined by plotting percent drug inhibition vs. log 10 drug concentration.
(§3) Host cells were seeded in 10-cm-diameter dishes and were transfected several days after plating with resistance test vector plasmid DNA and the envelope expression vector. […] HIV capsid protein (p24) levels in the harvested cell culture media were determined by an EIA method as described by the manufacturer (SIAC; Frederick, Md.). […] The inhibitory effect of the drug was determined using the following equation: […]

[3] = tested on: patient RTV-757, RTV-844, RTV-937, RTV-964 and RTV-966 (4 or more AZT resistance mutations); assay: Phenotypic susceptibility assay, patient isolates with AZT resistance-associated mutations; type: cell-based, HIV-1
Procedure: In these experiments patient-derived segment(s) corresponding to the HIV protease and reverse transcriptase coding regions were either patient-derived segments amplified by the reverse transcription-polymerase chain reaction method (RT-PCR) using viral RNA isolated from viral particles present in the serum of HIV-infected individuals or were mutants of wild type HIV-1 made by site directed mutagenesis of a parental clone of resistance test vector DNA. Isolation of viral RNA was performed using standard procedures (e.g. RNAgents Total RNA Isolation System, Promega, Madison Wis. or RNAzol, Tel-Test, Friendswood, Tex.). The RT-PCR protocol was divided into two steps. A retroviral reverse transcriptase [e.g. Moloney MuLV reverse transcriptase (Roche Molecular Systems, Inc., Branchburg, N.J.), or avian myeloblastosis virus (AMV) reverse transcriptase, (Boehringer Mannheim, Indianapolis, Ind.)] was used to copy viral RNA into cDNA. […]
Resistance tests were carried out with resistance test vectors using two host cell types. […] The resistance test vector viral particles were then used to infect a second host cell (the target host cell) in which the expression of the indicator gene is measured. […]

[4] = tested on: HIV with RT Thr69→Asp mutation; conditions: cited from earlier work
[5] = tested on: HIV-1 RT mutant resistance test vector M41L-A62V-T69SSA-T215Y-L210W-RTV; assay: Phenotypic susceptibility assay, site directed RTV M41L+A62V+T69SSA+L210W+T215Y; type: cell-based; conditions: RTV with 41 + 62 + 69 + 210 + 215; 3 replicates
Procedure: as §1, §2, §3

Nc1nc(NC2CC2)c2ncn([C@H]3C=C[C@@H](CO)C3)c2n1 [ABC, abacavir]
fold reduction in susceptibility [1]: eight fold

Cc1cn([C@H]2C[C@H](N=[N+]=[N-])[C@@H](CO)O2)c(=O)[nH]c1=O [AZT, zidovudine]
effect on susceptibility (words) [2]: substantial decrease in susceptibility to AZT

Cc1cn([C@H]2C=C[C@@H](CO)O2)c(=O)[nH]c1=O [d4T, stavudine]
fold reduced susceptibility ([3]; four patient viruses with 4 or more AZT resistance mutations (FIG. 6)): 3-6 fold | susceptibility compared to wild-type control RTV ([3]; patient RTV pools with multiple AZT-resistance mutations): decrease in susceptibility to d4T; also recorded: significant decreases in susceptibility to d4T

Nc1ccn([C@H]2CC[C@@H](CO)O2)c(=O)n1 [ddC, zalcitabine]
fold reduction in sensitivity [4]: five-fold | Average fold reduction in susceptibility [5]: 2.1 fold and 2.10 fold
